The results in this text go back to patent publication US12091426B2, “Bifunctional degraders of hematopoietic progenitor kinase and therapeutic uses thereof” (Nurix Therapeutics, Inc., priority 2021, dated 2024).

In the experiment the target is T1, HPK1 (Homo sapiens, UniProt Q92918).
T1 construct: A HiBiT tag was introduced by CRISPR on the N terminus of HPK1 in Jurkat cells; host or cells: Jurkat cells (ATCC TIB-152), monoclonal line with CRISPR knock-in of HiBiT at the endogenous HPK1 locus
The experiment is described as follows: HPK1 Cellular HiBit Degradation Assay. The note with it: HiBiT HPK1 Jurkat cells, 24 hrs; for DC50: concentration at which 50% of HPK1 was remaining, read-out: DC50 Category; for Dmax: Jurkat, maximum degradation vs DMSO vehicle control, read-out: Dmax Category. Format: cell-based. In outline:
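Jurkat cells with CRISPR knock-in N-terminal HiBiT-HPK1 were treated with CTMs (11-point, 3.16-fold, 10 uM to 0.1 nM final) for 24 hrs at 37° C. HiBiT lytic luminescence, with parental Jurkat as background and DMSO as 100%, gave % HPK1 remaining; four-parameter fit yielded DC50 and Dmax (100 minus lowest % remaining).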
Background: With HiBiT, luminescence reflects the tagged protein that the partner subunit can reach.

By DC50 is commonly meant the midpoint of the concentration-degradation curve. Usually Dmax stands for the largest share of the target that was removed.

Each structure is given as a SMILES string.

T1 sequence (Q92918 whole entry): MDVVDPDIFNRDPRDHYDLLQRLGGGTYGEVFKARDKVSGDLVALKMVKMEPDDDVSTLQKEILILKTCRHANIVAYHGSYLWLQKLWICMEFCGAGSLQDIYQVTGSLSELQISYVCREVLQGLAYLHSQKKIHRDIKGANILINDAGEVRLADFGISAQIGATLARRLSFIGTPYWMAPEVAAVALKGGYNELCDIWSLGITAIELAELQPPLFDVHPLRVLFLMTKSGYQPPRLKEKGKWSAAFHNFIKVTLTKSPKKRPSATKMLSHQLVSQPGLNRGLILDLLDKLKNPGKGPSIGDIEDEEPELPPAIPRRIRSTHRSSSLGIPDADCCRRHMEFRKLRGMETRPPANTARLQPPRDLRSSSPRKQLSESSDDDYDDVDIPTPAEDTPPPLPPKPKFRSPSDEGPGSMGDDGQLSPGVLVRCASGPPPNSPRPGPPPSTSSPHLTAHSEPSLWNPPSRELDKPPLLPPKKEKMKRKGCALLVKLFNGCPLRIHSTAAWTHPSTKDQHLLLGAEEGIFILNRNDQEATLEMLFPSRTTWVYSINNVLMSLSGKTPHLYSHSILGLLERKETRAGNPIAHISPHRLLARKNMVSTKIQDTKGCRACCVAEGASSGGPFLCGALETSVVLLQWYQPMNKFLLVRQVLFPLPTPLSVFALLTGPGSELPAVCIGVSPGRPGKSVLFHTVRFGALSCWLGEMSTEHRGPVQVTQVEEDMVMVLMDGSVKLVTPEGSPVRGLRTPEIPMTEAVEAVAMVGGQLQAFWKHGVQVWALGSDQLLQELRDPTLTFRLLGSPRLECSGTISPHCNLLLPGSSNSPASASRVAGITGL

On to `CC(C)n1cnc2cc(-c3ccc4c(c3)N([C@H]3C[C@@H](N5CCCCC5)C3)C(=O)C43CCN(C(=O)C4CCN(C(=O)[C@H]5CC[C@H](Nc6ccc(C7CCC(=O)NC7=O)cc6)CC5)CC4)CC3)nc(NC3CC3)c21` (mixture of isomers) [Example 53, (3RS)-3-(4-{[(1R,4R)-4-[4-({6-[4-(cyclopropylamino)-3-(propan-2-yl)-3H-imidazo[4,5-c]pyridin-6-yl]-2-oxo-1-[(1S,3S)-3-(piperidin-1-yl)cyclobutyl]-1,2-dihydrospiro[indole-3,4′-piperidin]-1′-yl}carbonyl)piperidine-1-carbonyl]cyclohexyl]amino}phenyl)piperidine-2,6-dione], for which the DC50 was 100 to 500 nM and the Dmax is 50 to 70%.

As for `CC(C)n1cnc2cc(-c3ccc4c(c3)N([C@H]3C[C@@H](N5CCCCC5)C3)C(=O)C43CCN(C(=O)C4C5CCC4CN(C(=O)C4CCN(c6ccc(C7CCC(=O)NC7=O)cn6)CC4)C5)CC3)nc(NC3CC3)c21` (mixture of isomers) [Example 284, (3RS)-3-(6-{4-[8-({6-[4-(cyclopropylamino)-3-(propan-2-yl)-3H-imidazo[4,5-c]pyridin-6-yl]-2-oxo-1-[(1S,3S)-3-(piperidin-1-yl)cyclobutyl]-1,2-dihydrospiro[indole-3,4′-piperidin]-1′-yl}carbonyl)-3-azabicyclo[3.2.1]Octane-3-carbonyl]piperidin-1-yl}pyridin-3-yl)piperidine-2,6-dione], the DC50 was less than 100 nM and the greatest degradation seen (Dmax) lay in the range of 70 to 85%.

`CC(C)n1cnc2cc(-c3ccc4c(c3)N([C@H]3C[C@@H](N5CCCCC5)C3)C(=O)C43CCN(C(=O)C4(F)CCN(C(=O)C5CCN(c6ccc(C7CCC(=O)NC7=O)cn6)CC5)CC4)CC3)nc(NC3CC3)c21` (mixture of isomers) [Example 277, (3RS)-3-(6-{4-[4-({6-[4-(cyclopropylamino)-3-(propan-2-yl)-3H-imidazo[4,5-c]pyridin-6-yl]-2-oxo-1-[(1S,3S)-3-(piperidin-1-yl)cyclobutyl]-1,2-dihydrospiro[indole-3,4′-piperidin]-1′-yl}carbonyl)-4-fluoropiperidine-1-carbonyl]piperidin-1-yl}pyridin-3-yl)piperidine-2,6-dione]: the DC50 was less than 100 nM and the Dmax lay in the range of 70 to 85%.

Consider `CC(C)n1cnc2cc(-c3ccc4c(c3)N([C@H]3C[C@@H](N5CCCCC5)C3)C(=O)C43CCN(C(=O)C4CCN(C(=O)C5CCN(c6ccc(N7CCC(=O)NC7=O)cc6)CC5)CC4)CC3)nc(Nc3ccccc3F)c21` [Example 70, 1-[4-(4-{4-[(6-{4-[(2-fluorophenyl)amino]-3-(propan-2-yl)-3H-imidazo[4,5-c]pyridin-6-yl}-2-oxo-1-[(1S,3S)-3-(piperidin-1-yl)cyclobutyl]-1,2-dihydrospiro[indole-3,4′-piperidin]-1′-yl)carbonyl]piperidine-1-carbonyl}piperidin-1-yl)phenyl]-1,3-diazinane-2,4-dione], for which the DC50 is less than 100 nM and the Dmax is greater than 85%.

Consider `Cc1cc(F)c(Nc2nc(-c3ccc4c(c3)N([C@H]3C[C@@H](N5CCCCC5)C3)C(=O)C43CCN(C(=O)C4CCN(C(=O)C5CCN(c6ccc(C7CCC(=O)NC7=O)cn6)CC5)CC4)CC3)cc3ncn(C(C)C)c23)cc1C(=O)NC(C)C` (mixture of isomers) [Example 72, 5-[(6-{1′-[1-(1-{5-[(3RS)-2,6-dioxopiperidin-3-yl]pyridin-2-yl}piperidine-4-carbonyl)piperidine-4-carbonyl]-2-oxo-1-[(1S,3S)-3-(piperidin-1-yl)cyclobutyl]-1,2-dihydrospiro[indole-3,4′-piperidin]-6-yl}-3-(propan-2-yl)-3H-imidazo[4,5-c]pyridin-4-yl)amino]-4-fluoro-2-methyl-N-(propan-2-yl)benzamide], for which the half-maximal degradation concentration (DC50) lay in the range of 100 to 500 nM and the greatest degradation seen (Dmax) was in the range of 70 to 85%.

Turning to `CC(C)n1cnc2cc(-c3ccc4c(c3)N([C@H]3C[C@@H](N5CCCCC5)C3)C(=O)C43CCN(C(=O)C(C)(C)N4CCN(C(=O)C5CCN(c6ccc(C7CCC(=O)NC7=O)cn6)CC5)CC4)CC3)nc(NC3CC3)c21` (mixture of isomers) [Example 188, (3RS)-3-(6-{4-[4-(1-{6-[4-(cyclopropylamino)-3-isopropylimidazo[4,5-c]pyridin-6-yl]-2-oxo-1-[(1S,3S)-3-(piperidin-1-yl)cyclobutyl]spiro[indole-3,4′-piperidin]-1′-yl}-2-methyl-1-oxopropan-2-yl)piperazine-1-carbonyl]piperidin-1-yl}pyridin-3-yl)piperidine-2,6-dione], the DC50 was less than 100 nM and the Dmax is 70 to 85%.

On to `CC(C)n1cnc2cc(-c3ccc4c(c3)N([C@H]3C[C@@H](N5CCCCC5)C3)C(=O)C43CCN(C(=O)C4CCN(C(=O)CN5CCN(c6ccc(C7CCC(=O)NC7=O)cn6)CC5)CC4)CC3)nc(Nc3ccccc3F)c21` (mixture of isomers) [Example 95, (3RS)-3-{6-[4-(2-{4-[(6-{4-[(2-fluorophenyl)amino]-3-(propan-2-yl)-3H-imidazo[4,5-c]pyridin-6-yl}-2-oxo-1-[(1S,3S)-3-(piperidin-1-yl)cyclobutyl]-1,2-dihydrospiro[indole-3,4′-piperidin]-1′-yl)carbonyl]piperidin-1-yl}-2-oxoethyl)piperazin-1-yl]pyridin-3-yl}piperidine-2,6-dione], for which the DC50 is less than 100 nM and the Dmax was in the range of 70 to 85%.

On to `CC(C)n1cnc2cc(-c3ccc4c(c3)N([C@H]3C[C@@H](N5CCCCC5)C3)C(=O)C43CCN(C(=O)[C@H]4CC[C@@H](C(=O)N5CCC(N(C)c6ccc(C7CCC(=O)NC7=O)cc6)CC5)CC4)CC3)nc(NC3CC3)c21` (mixture of isomers) [Example 228, (3RS)-3-{4-[methyl({1-[(1S,4S)-4-({6-[4-(cyclopropylamino)-3-(propan-2-yl)-3H-imidazo[4,5-c]pyridin-6-yl]-2-oxo-1-[(1S,3S)-3-(piperidin-1-yl)cyclobutyl]-1,2-dihydrospiro[indole-3,4′-piperidin]-1′-yl}carbonyl)cyclohexanecarbonyl]piperidin-4-yl})amino]phenyl}piperidine-2,6-dione], for which the DC50 was in the range of 100 to 500 nM and the greatest degradation seen (Dmax) is 50 to 70%.

In the case of `CC1C(C(=O)N2CCC3(CC2)C(=O)N([C@H]2C[C@@H](N4CCCCC4)C2)c2cc(-c4cc5ncn(C(C)C)c5c(NC5CC5)n4)ccc23)CCCN1C(=O)C1CCN(c2ccc(C3CCC(=O)NC3=O)cc2)CC1` (mixture of isomers) [Example 254, (3RS)-3-(4-{4-[3-({6-[4-(cyclopropylamino)-3-(propan-2-yl)-3H-imidazo[4,5-c]pyridin-6-yl]-2-oxo-1-[(1S,3S)-3-(piperidin-1-yl)cyclobutyl]-1,2-dihydrospiro[indole-3,4′-piperidin]-1′-yl}carbonyl)-2-methylpiperidine-1-carbonyl]piperidin-1-yl}phenyl)piperidine-2,6-dione], the DC50 fell in the range of 100 to 500 nM and the maximal degradation (Dmax) was 50 to 70%.

Take `CC(C)n1cnc2cc(-c3ccc4c(c3)N([C@H]3C[C@@H](N5CCCCC5)C3)C(=O)C43CCN(C(=O)[C@H]4C[C@H]5C[C@@H]4CN5C(=O)C4CCN(c5ccc(C6CCC(=O)NC6=O)cn5)CC4)CC3)nc(NC3CC3)c21` (mixture of isomers) [Example 261, (3RS)-3-(6-{4-[(1R,4S,5S)-5-({6-[4-(cyclopropylamino)-3-(propan-2-yl)-3H-imidazo[4,5-c]pyridin-6-yl]-2-oxo-1-[(1S,3S)-3-(piperidin-1-yl)cyclobutyl]-1,2-dihydrospiro[indole-3,4′-piperidin]-1′-yl}carbonyl)-2-azabicyclo[2.2.1]heptane-2-carbonyl]piperidin-1-yl}pyridin-3-yl)piperidine-2,6-dione]: the DC50 is less than 100 nM and the Dmax is 70 to 85%.

For `CC(C)n1cnc2cc(-c3ccc4c(c3)N([C@H]3C[C@@H](N5CCCCC5)C3)C(=O)C43CCN(C(=O)C4CCN(C(=O)[C@H]5CC[C@H](Cn6ncc7cc(C8CCC(=O)NC8=O)ccc76)CC5)CC4)CC3)nc(Nc3ccccc3F)c21` (mixture of isomers) [Example 64, (3RS)-3-(1-{[(1R,4R)-4-{4-[(6-{4-[(2-fluorophenyl)amino]-3-(propan-2-yl)-3H-imidazo[4,5-c]pyridin-6-yl}-2-oxo-1-[(1S,3S)-3-(piperidin-1-yl)cyclobutyl]-1,2-dihydrospiro[indole-3,4′-piperidin]-1′-yl)carbonyl]piperidine-1-carbonyl}cyclohexyl]methyl}-1H-indazol-5-yl)piperidine-2,6-dione], the DC50 is less than 100 nM and the Dmax was 70 to 85%.

For the compound `CC(C)n1cnc2cc(-c3ccc4c(c3)N([C@H]3C[C@@H](N5CC6CCC(C6)C5)C3)C(=O)C43CCN(C(=O)C4(C)CCN(C(=O)C5CCN(c6ccc(C7CCC(=O)NC7=O)cn6)CC5)CC4)CC3)nc(NC3CC3)c21` (mixture of isomers) [Example 217, (3RS)-3-(6-{4-[4-({6-[4-(cyclopropylamino)-3-(propan-2-yl)-3H-imidazo[4,5-c]pyridin-6-yl]-2-oxo-1-[(1S,3S)-3-{3-Azabicyclo[3.2.1]octan-3-yl}cyclobutyl]-1,2-dihydrospiro[indole-3,4′-piperidin]-1′-yl}carbonyl)-4-methylpiperidine-1-carbonyl]piperidin-1-yl}pyridin-3-yl)piperidine-2,6-dione], the DC50 was less than 100 nM and the maximal degradation (Dmax) is greater than 85%.

Regarding `CC(C)n1cnc2cc(-c3ccc4c(c3)N([C@H]3C[C@@H](N5CCCCC5)C3)C(=O)C43CCN(C(=O)C4CCC5(CC4)CCN(C(=O)C4CCN(c6ccc(C7CCC(=O)NC7=O)cn6)CC4)CC5)CC3)nc(NC3CC3)c21` (mixture of isomers) [Example 295, (3RS)-3-(6-{4-[9-({6-[4-(cyclopropylamino)-3-(propan-2-yl)-3H-imidazo[4,5-c]pyridin-6-yl]-2-oxo-1-[(1S,3S)-3-(piperidin-1-yl)cyclobutyl]-1,2-dihydrospiro[indole-3,4′-piperidin]-1′-yl}carbonyl)-3-azaspiro[5.5]undecane-3-carbonyl]piperidin-1-yl}pyridin-3-yl)piperidine-2,6-dione], the DC50 lay within 100 to 500 nM and the Dmax lay in the range of 70 to 85%.
